From patent US8633315B2, “Substituted hydroxyethyl amine compounds as beta-secretase modulators and methods of use” (Amgen Inc., priority 2007, dated 2014)
Like-named read-outs stand apart in the source and are kept apart here.

Tests used:
[1] = target: BACE1 (Homo sapiens, UniProt P56817); assay: In vitro enzymatic BACE FRET (fluorescence resonance energy transfer) assay; type: biochemical
Outline: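 Cleavage of a quenched peptide FRET substrate (50 nM) in 0.05 M acetate pH 4.2, 10% DMSO, 100 uM genapol, 1 h incubation. Reaction stopped by Tris neutralization; fluorescence read at excitation 488 nm / […].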

[2] = tested on: Cells stably expressing Amyloid Precursor Protein (APP); assay: In vitro BACE cell-based assay (HEK cell assay): Aβ40 in conditioned medium by sandwich ELISA
Outline: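 APP-stably-expressing cells were grown 24 h in DMEM/10% FBS, then treated for 24 h with 10-point doses starting at 100 μM or 10 μM, at 0.1% DMSO final. Aβ40 in conditioned medium was measured by sandwich ELISA (pAb40 capture, biotinylated 6E10 detection, europium time-resolved fluorescence); IC50 from percent inhibition.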

[3] = Homo sapiens, HEK293, 24 h, Aβ40 in conditioned medium after 24 h incubation
[4] = Aβ40 in conditioned medium after 24 h incubation

Chain of BACE1 (P56817 46-501, species assumed): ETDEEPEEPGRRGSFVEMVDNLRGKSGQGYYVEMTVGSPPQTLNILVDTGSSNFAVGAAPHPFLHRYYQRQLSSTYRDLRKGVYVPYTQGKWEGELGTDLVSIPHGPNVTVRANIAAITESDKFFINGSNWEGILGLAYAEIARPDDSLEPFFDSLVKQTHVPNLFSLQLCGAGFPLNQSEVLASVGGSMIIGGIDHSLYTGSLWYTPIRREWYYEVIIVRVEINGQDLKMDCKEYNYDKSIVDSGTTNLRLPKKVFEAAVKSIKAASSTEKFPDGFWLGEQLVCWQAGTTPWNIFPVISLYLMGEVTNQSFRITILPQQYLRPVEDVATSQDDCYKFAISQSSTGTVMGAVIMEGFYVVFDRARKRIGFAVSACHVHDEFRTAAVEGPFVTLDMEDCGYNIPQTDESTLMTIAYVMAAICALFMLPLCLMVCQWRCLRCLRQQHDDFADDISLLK

SMILES | IC50 [1] | IC50 [2, 3] | IC50 [2, 4] | IC50 ([1]; read-out: BACE 1 FRET assay) | IC50 ([2]; Homo sapiens, HEK293)
C=CC[C@H](NC(=O)[C@@H](C)OC)[C@H](O)CN[C@H]1CC2(CCC2)Oc2nc(F)c(CC(C)C)cc21 [Example 127, (2R)-N-((1S)-1-((1R)-2-(((4′S)-7′-fluoro-6′-(2-methylpropyl)-3′,4′-dihydrospiro[cyclobutane-1,2′-pyrano[2,3-b]pyridin]-4′-yl)amino)-1-hydroxyethyl)-3-buten-1-yl)-2-(methyloxy)propanamide] | 445 nM | 207 nM |  |  | 
C=CCC(NC(C)=O)C(O)CNC1CC2(CC(O)C2)Oc2ccc(Br)cc21 [Example 117, N-((1S)-1-((1R)-2-(((2r,3′R,4S)-6-bromo-3′-hydroxy-3,4-dihydrospiro[chromene-2,1′-cyclobutan]-4-yl)amino)-1-hydroxyethyl)-3-buten-1-yl)acetamide] | 419 nM |  | 1290 nM |  | 
C=CC[C@H](NC(=O)c1ccc2c(c1)OC(F)(F)O2)[C@H](O)CN[C@H]1CC2(CCC2)Oc2ncc(CC(C)(C)C)cc21 [Example 104, N-((1S)-1-((1R)-2-(((4′S)-6′-(2,2-dimethylpropyl)-3′,4′-dihydrospiro[cyclobutane-1,2′-pyrano[2,3-b]pyridin]-4′-yl)amino)-1-hydroxyethyl)-3-buten-1-yl)-2,2-difluoro-1,3-benzodioxole-5-carboxamide] | 154 nM | 2360 nM |  |  | 
C=CC[C@H](NC(=O)[C@@H](F)C(F)(F)F)[C@H](O)CN[C@H]1CC2(CCC2)Oc2ncc(CC(C)(C)C)cc21 [Example 137, (2R)-N-((1S)-1-((1R)-2-(((4′S)-6′-(2,2-dimethylpropyl)-3′,4′-dihydrospiro[cyclobutane-1,2′-pyrano[2,3-b]pyridin]-4′-yl)amino)-1-hydroxyethyl)-3-buten-1-yl)-2,3,3,3-tetrafluoropropanamide] | 79 nM | 633 nM |  |  | 
C=CC[C@H](NC(=O)C1COC(c2ccccn2)O1)[C@H](O)CNC1CC2(CCC2)Oc2ncc(CC(C)(C)C)cc21 (stereo partly drawn) [compound 242, N-((1S)-1-((1R)-2-((6′-(2,2-dimethylpropyl)-3′,4′-dihydrospiro[cyclobutane-1,2′-pyrano[2,3-b]pyridin]-4′-yl)amino)-1-hydroxyethyl)-3-buten-1-yl)-2-(2-pyridinyl)-1,3-dioxolane-4-carboxamide] |  |  |  | 3830 nM | 691 nM
C=CCC(NC(=O)C1CC1OCC)C(O)CNC1CC2(CCC2)Oc2ncc(CC(C)(C)C)cc21 [Example 153, (1R,2R)-N-((1S)-1-((1R)-2-(((4′S)-6′-(2,2-dimethylpropyl)-3′,4′-dihydrospiro[cyclobutane-1,2′-pyrano[2,3-b]pyridin]-4′-yl)amino)-1-hydroxyethyl)-3-buten-1-yl)-2-(ethyloxy)cyclopropanecarboxamide; (1S,2S)-N-((1S)-1-((1R)-2-(((4′S)-6′-(2,2-dimethylpropyl)-3′,4′-dihydrospiro[cyclobutane-1,2′-pyrano[2,3-b]pyridin]-4′-yl)amino)-1-hydroxyethyl)-3-buten-1-yl)-2-(ethyloxy)cyclopropanecarboxamide] | 104 nM | 129 nM |  |  | 
C=CC[C@H](NC(=O)c1cnccc1OC)[C@H](O)CN[C@H]1CC2(CCC2)Oc2ncc(CC(C)(C)C)cc21 [Example 76, N-((1S)-1-((1R)-2-(((4′S)-6′-(2,2-dimethylpropyl)-3′,4′-dihydrospiro[cyclobutane-1,2′-pyrano[2,3-b]pyridin]-4′-yl)amino)-1-hydroxyethyl)-3-buten-1-yl)-4-(methyloxy)-3-pyridinecarboxamide] | 675 nM | 802 nM |  |  | 
C=CC[C@H](NC(=O)c1cccnc1)[C@H](O)CN[C@H]1CC2(CCC2)Oc2ncc(CC(C)(C)C)cc21 [Example 96, N-((1S)-1-((1R)-2-(((4′S)-6′-(2,2-dimethylpropyl)-3′,4′-dihydrospiro[cyclobutane-1,2′-pyrano[2,3-b]pyridin]-4′-yl)amino)-1-hydroxyethyl)-3-buten-1-yl)-3-pyridinecarboxamide] | 68 nM | 135 nM |  |  | 
C=CC[C@H](NC(=O)COC)[C@H](O)CN[C@H]1CC2(CCC2)Oc2ccc(CC(C)C)cc21 [Example 35, N-((1S)-1-((1R)-1-hydroxy-2-(((4S)-6-(2-methylpropyl)-3,4-dihydrospiro[chromene-2,1′-cyclobutan]-4-yl)amino)ethyl)-3-buten-1-yl)-2-(methyloxy)acetamide] | 104 nM | 624 nM |  |  | 
C=CC[C@H](NC(C)=O)[C@H](O)CN[C@H]1C[C@@]2(CC[C@H]2O)Oc2ncc(CC(C)(C)C)cc21 [Example 50, N-((1S)-1-((1R)-2-(((1R,2R,4′S)-6′-(2,2-dimethylpropyl)-2-hydroxy-3′,4′-dihydrospiro[cyclobutane-1,2′-pyrano[2,3-b]pyridin]-4′-yl)amino)-1-hydroxyethyl)-3-buten-1-yl)acetamide] | 4160 nM | ≥ 10000 nM |  |  | 
C=CC[C@H](NC(=O)COC)[C@H](O)CN[C@H]1CC2(CCC2)Oc2nc(F)c(CC(C)C)cc21 [Example 126, N-((1S)-1-((1R)-2-(((4′S)-7′-fluoro-6′-(2-methylpropyl)-3′,4′-dihydrospiro[cyclobutane-1,2′-pyrano[2,3-b]pyridin]-4′-yl)amino)-1-hydroxyethyl)-3-buten-1-yl)-2-(methyloxy)acetamide] | 316 nM | 211 nM |  |  | 
C=CC[C@H](NC(=O)c1cc(F)c(F)cc1F)[C@H](O)CN[C@H]1CC2(CCC2)Oc2ncc(CC(C)(C)C)cc21 [Example 77, N-((1S)-1-((1R)-2-(((4′S)-6′-(2,2-dimethylpropyl)-3′,4′-dihydrospiro[cyclobutane-1,2′-pyrano[2,3-b]pyridin]-4′-yl)amino)-1-hydroxyethyl)-3-buten-1-yl)-2,4,5-trifluorobenzamide] | 440 nM | 3310 nM |  |  | 
CC=CC[C@H](NC(=O)COC)[C@H](O)CN[C@H]1CC2(CC(F)C2)Oc2ncc(CC(C)(C)C)cc21 (stereo partly drawn) [Example 110, N-((1S)-1-((1R)-2-(((1s,3S,4′S)-6′-(2,2-dimethylpropyl)-3-fluoro-3′,4′-dihydrospiro[cyclobutane-1,2′-pyrano[2,3-b]pyridin]-4′-yl)amino)-1-hydroxyethyl)-3-penten-1-yl)-2-(methyloxy)acetamide] | 40 nM |  | 293 nM |  | 
C=CCC(NC(C)=O)C(O)CNC1CC2(CC(O)C2)Oc2ccc(CC(C)(C)C)cc21 [Example 116, N-((1S)-1-((1R)-2-(((2r,3′R,4S)-6-(2,2-dimethylpropyl)-3′-hydroxy-3,4-dihydrospiro[chromene-2,1′-cyclobutan]-4-yl)amino)-1-hydroxyethyl)-3-buten-1-yl)acetamide] | 15 nM |  | 15 nM |  | 
C=CC[C@H](NC(=O)COC)[C@H](O)CN[C@H]1CC2(CCC2)Oc2ncc(CC(C)(C)CF)cc21 [Example 80, N-((1S)-1-((1R)-2-(((4′S)-6′-(3-fluoro-2,2-dimethylpropyl)-3′,4′-dihydrospiro[cyclobutane-1,2′-pyrano[2,3-b]pyridin]-4′-yl)amino)-1-hydroxyethyl)-3-buten-1-yl)-2-(methyloxy)acetamide] | 84 nM | 249 nM |  |  | 
C=CC[C@H](NC(=O)c1ccccc1F)[C@H](O)CN[C@H]1CC2(CCC2)Oc2ncc(CC(C)(C)C)cc21 [Example 99, N-((1S)-1-((1R)-2-(((4′S)-6′-(2,2-dimethylpropyl)-3′,4′-dihydrospiro[cyclobutane-1,2′-pyrano[2,3-b]pyridin]-4′-yl)amino)-1-hydroxyethyl)-3-buten-1-yl)-2-fluorobenzamide] | 339 nM | 1460 nM |  |  | 
CC(=O)N[C@@H](CC=C1CCC1)[C@H](O)CN[C@H]1CC2(CCC2)Oc2ncc(CC(C)(C)C)cc21 [Example 83, N-((1S,2R)-1-(2-cyclobutylideneethyl)-3-(((4′S)-6′-(2,2-dimethylpropyl)-3′,4′-dihydrospiro[cyclobutane-1,2′-pyrano[2,3-b]pyridin]-4′-yl)amino)-2-hydroxypropyl)acetamide] | 11 nM | 18 nM |  |  | 
C=CC[C@H](NC(C)=O)[C@H](O)CN[C@H]1CC2(CCC2)Oc2c1cc(CC(C)(C)C)nc2N1CCCC1 [Example 46, N-((1S)-1-((1R)-2-(((4′S)-6′-(2,2-dimethylpropyl)-8′-(1-pyrrolidinyl)-3′,4′-dihydrospiro[cyclobutane-1,2′-pyrano[2,3-c]pyridin]-4′-yl)amino)-1-hydroxyethyl)-3-buten-1-yl)acetamide] | 373 nM | 183 nM |  |  | 
C=CC[C@H](NC(=O)[C@@H](C)OC)[C@H](O)CN[C@H]1CC2(CCC2)Oc2ncc(CC(C)C)cc21 [Example 42, (2R)-N-((1S)-1-((1R)-1-hydroxy-2-(((4′S)-6′-(2-methylpropyl)-3′,4′-dihydrospiro[cyclobutane-1,2′-pyrano[2,3-b]pyridin]-4′-yl)amino)ethyl)-3-buten-1-yl)-2-(methyloxy)propanamide] | 99 nM | 269 nM |  |  | 
C=CC[C@H](NC(=O)c1csc(F)c1)[C@H](O)CN[C@H]1CC2(CCC2)Oc2ncc(CC(C)(C)C)cc21 [Example 135, N-((1S)-1-((1R)-2-(((4′S)-6′-(2,2-dimethylpropyl)-3′,4′-dihydrospiro[cyclobutane-1,2′-pyrano[2,3-b]pyridin]-4′-yl)amino)-1-hydroxyethyl)-3-buten-1-yl)-5-fluoro-3-thiophenecarboxamide] | 137 nM | 1300 nM |  |  | 
C=CC[C@H](NC(=O)[C@@H](CC)OC)[C@H](O)CN[C@H]1CC2(CCC2)Oc2ncc(CC(C)(C)C)cc21 [Example 146, (2R)-N-((1S)-1-((1R)-2-(((4′S)-6′-(2,2-dimethylpropyl)-3′,4′-dihydrospiro[cyclobutane-1,2′-pyrano[2,3-b]pyridin]-4′-yl)amino)-1-hydroxyethyl)-3-buten-1-yl)-2-(methyloxy)butanamide] | 565 nM | 247 nM |  |  | 
